From patent US4939177A, “Use of avarol for the control of AIDS and ARC” (Merz + Co. GmbH & Co., priority 1986, dated 1990)
Where two headings read alike, the source gives them in different places.

How the values were obtained:
[1] = tested on: human peripheral blood lymphocytes (IgG); test: In vitro IgG production by peripheral blood lymphocytes; assay type: cell-based
Method: Human peripheral blood lymphocytes (6×10^5 cells/ml) were cultured in the presence of 0 to 2 μg/ml of pokeweed mitogen (PWM; Sigma no. 9379) in Dulbeccos minimum essential medium, supplemented with 20% fetal calf serum, for 6 days. The assays were performed in a final volume of 200 μl in microtiter plates (Dynatech; M129B) (Muller et al., Eur. J. Cancer Clin. Oncol. 22: 473-476; 1986). Avarol in a concentration range of 0-3 μg/ml was added at time 0 or 3 days after starting the culture. The supernatants were harvested and assayed for human immunoglobulin content.
The culture supernatants were assayed by the enzyme-linked immunosorbent assay (Houtman et al., Clin. Exp. Immunol. 62: 696-704; 1985) using anti-human IgG (Dakopatts, Hamburg; P214) and anti-human IgM (Dakopatts; P215). These antibodies were conjugated to peroxidase. Bound enzyme activity was measured using 2,2'-azino-bis(3-ethylbenzthiazolinesulfonic acid) (Sigma no. A-1888) as substrate.

[2] = tested on: Arthus reaction in Sprague-Dawley rats; test: Antibody mediated hypersensitivity (modified active Arthus reaction, ovalbumin); assay type: in vivo, rat
[3] = assay type: in vivo, rat; conditions: for Percentage of Radioactivity in Blood: rat
[4] = Organ distribution of tritium labelled avarol in rats; assay type: in vivo, rat; conditions: for Concentration of Avarol, Brain / Concentration of Avarol, Heart / Concentration of Avarol, Kidney / Concentration of Avarol, Liver / Concentration of Avarol, Skin / Concentration of Avarol, Spleen / Concentration of Avarol, Testes: rat, 24 hours
[5] = tested on: Interferon gamma production by peripheral human lymphocytes; test: Interferon-gamma production by human lymphocytes (buffy coat cells), EIA; assay type: cell-based
Method: It is therefore advantageous that an anti-AIDS chemotherapeutic agent is provided with the ability to induce gamma Interferon in T-lymphocytes. […] The experiments were performed in vitro, using peripheral human lymphocytes (buffy coat cells) in culture.
Buffy coat cells were prepared by centrifugation on Ficoll-Plaque gradient and washed two times. Subsequently the cells were divided and adjusted to a concentration of 5×1,000,000 cells/ml.
Levels of Interferon were defined by an Enzymeimmunoassay (EIA). Interferon gamma: 96 well flat bottom plates (Greiner, Neurtingen) were coated with a monoclonal antibody recognizing Interferon gamma. 200 μl of the supernatant sample were added per well together with Interferon gamma-peroxidase coupled (50 μl), consisting of the same antibody as used for coating. […] The enzymatic reaction is completed by a preparation containing hydrogen peroxide substrate. The reaction is stopped within 15 minutes by 100 μl of sulfuric acid per well. The amount of Interferon is defined by comparing the extinction of the test sample with a standard curve produced by known values of Interferon gamma.

IgM titer = test: Serum IgM titer of SRBC-immunized mice; assay type: in vivo, mouse; conditions: 30 mg/kg i.p.
Method: The plaque test of Jerne and Nordin (Science 140: 405-406, 1963) was used with the modification given by Cunningham and Szenberg (Immunolog. 14: 599-601; 1968). Briefly, 8 male NMRI mice per group (20-22 g) were immunized on day 0 by i.p. injection of 5×10^8 SRBC in 0.5 ml saline. Treatment with avarol was done i.p. either from day 0 to day +4 or from day -4 to day 0. One hour after the last drug administration, the animals were killed by a blow on the head and bled. The spleens were removed and a single cell suspension was prepared by teasing the pooled spleens through a 120-μm mesh sieve. After lysing the erythrocytes by 0.15M NH4 Cl, the cells were washed twice in Hank's balanced salt solution containing 29 ml of 7.5% NaHCO3 and 10 ml of 1M HEPES buffer solution per one liter. The cells were resuspended in 2 ml per spleen. Six Cunningham chambers per group were filled with a mixture of 0.5 ml of a suitable dilution of spleen cells (generally 1:100), 0.5 ml of a suspension of SRBC (10^9 /ml) and 125 μl of normal guinea pig complement. After 90-120 min of incubation at 37° C., the number of plaques was counted. Plaques per spleen or per 10^6 spleen cells were calculated.
The pooled blood of 8 mice was centrifuged to obtain the serum. IgM and IgG titers were measured with the mercaptoethanol method (Hudson, L. and Hay, F. C. Practical Immunology, Blackwell Sci., Oxford; 1983).

lymphoma cell = conditions: previous studies; cited from earlier work
normal T-lymphocytes = conditions: cited from earlier work
normal B-lymphocytes = conditions: cited from earlier work

Structure (SMILES): CC1=CCC[C@H]2[C@](C)(Cc3cc(O)ccc3O)[C@@H](C)CC[C@]12C [Avarol, 2-[(1R)-1,2,3,4,4a,7,8,8aα-octahydro-1β,2β,4aβ,5-tetramethyl-1-naphthylmethyl]-1,4-benzenediol]
- IgG production, in words ([1]; 0.3 or 1 μg/ml, irrespective of PWM): significant increase
- IgG synthesized ([1]; avarol 0.3 μg/ml, PWM +, 0 to 6 days): 6.7 ± 1.5 µg/mL
- IgG synthesized ([1]; avarol 0.3 μg/ml, PWM +, 3 to 6 days): 7.9 ± 1.9 µg/mL
- IgG synthesized ([1]; avarol 0.3 μg/ml, PWM -, 0 to 6 days): 2.1 ± 0.5 µg/mL
- IgG synthesized ([1]; avarol 0.3 μg/ml, PWM -, 3 to 6 days): 2.0 ± 0.5 µg/mL
- IgG synthesized ([1]; avarol 1.0 μg/ml, PWM +, 0 to 6 days): 7.0 ± 1.6 µg/mL
- IgG synthesized ([1]; avarol 1.0 μg/ml, PWM +, 3 to 6 days): 8.5 ± 1.9 µg/mL
- IgG synthesized ([1]; avarol 1.0 μg/ml, PWM -, 0 to 6 days): 2.3 ± 0.6 µg/mL
- IgG synthesized ([1]; avarol 1.0 μg/ml, PWM -, 3 to 6 days): 2.2 ± 0.5 µg/mL
- IgG synthesized ([1]; avarol 3.0 μg/ml, PWM +, 0 to 6 days): 3.9 ± 1.0 µg/mL
- IgG synthesized ([1]; avarol 3.0 μg/ml, PWM +, 3 to 6 days): 4.9 ± 1.0 µg/mL
- IgG synthesized ([1]; avarol 3.0 μg/ml, PWM -, 0 to 6 days): 1.2 ± 0.3 µg/mL
- IgG synthesized ([1]; avarol 3.0 μg/ml, PWM -, 3 to 6 days): 1.3 ± 0.3 µg/mL
- IgG production, in words ([1]; higher avarol concentrations): turned to normal values
- Arthus reaction, in words ([2]; 30 mg/kg, 24 hours and 30 minutes before challenge, P>0.05): weak suppression of the reaction
- Arthus reaction, in words ([2]; 3-30 mg/kg i.p., day -1 to +2, day +18 to +21, or immediately before challenge): no significant suppression of the Arthus reaction
- Percentage of Radioactivity in Blood ([3]; i.v. 10 mg/kg, 1 hour, 100% = 10 minutes after injection): 96%
- Percentage of Radioactivity in Blood ([3]; i.v. 10 mg/kg, 6 hours, 100% = 10 minutes after injection): 88%
- Percentage of Radioactivity in Blood ([3]; i.v. 10 mg/kg, 12 hours, 100% = 10 minutes after injection): 72%
- Percentage of Radioactivity in Blood ([3]; i.v. 10 mg/kg, 24 hours, 100% = 10 minutes after injection): 43%
- Percentage of Radioactivity in Blood ([3]; i.v. 10 mg/kg, 48 hours, 100% = 10 minutes after injection): 26%
- Percentage of Radioactivity in Blood ([3]; i.v. 20 mg/kg, 1 hour, 100% = 10 minutes after injection): 92%
- Percentage of Radioactivity in Blood ([3]; i.v. 20 mg/kg, 12 hours, 100% = 10 minutes after injection): 75%
- Percentage of Radioactivity in Blood ([3]; i.v. 20 mg/kg, 24 hours, 100% = 10 minutes after injection): 39%
- Percentage of Radioactivity in Blood ([3]; i.v. 20 mg/kg, 48 hours, 100% = 10 minutes after injection): 21%
- Percentage of Radioactivity in Blood ([3]; in vivo, iv, 20 mg/kg): 83
- half-life ([3]; rats, i.v.): approximately 22 hours
- Concentration of Avarol, Brain ([4]; i.v. 2 mg/kg): 0.45 microgram of Avarol per gram o
- Concentration of Avarol, Heart ([4]; i.v. 2 mg/kg): 0.7 microgram of Avarol per gram o
- Concentration of Avarol, Kidney ([4]; i.v. 2 mg/kg): 1.6 microgram of Avarol per gram o
- Concentration of Avarol, Liver ([4]; i.v. 2 mg/kg): 6.4 microgram of Avarol per gram o
- Concentration of Avarol, Skin ([4]; i.v. 2 mg/kg): 0.4 microgram of Avarol per gram o
- Concentration of Avarol, Spleen ([4]; i.v. 2 mg/kg): 1.7 microgram of Avarol per gram o
- Concentration of Avarol, Testes ([4]; i.v. 2 mg/kg): 0.48 microgram of Avarol per gram o
- Concentration of Avarol, Brain ([4]; i.v. 10 mg/kg): 0.58 microgram of Avarol per gram o
- Concentration of Avarol, Heart ([4]; i.v. 10 mg/kg): 0.9 microgram of Avarol per gram o
- Concentration of Avarol, Kidney ([4]; i.v. 10 mg/kg): 2.2 microgram of Avarol per gram o
- Concentration of Avarol, Liver ([4]; i.v. 10 mg/kg): 6.9 microgram of Avarol per gram o
- Concentration of Avarol, Skin ([4]; i.v. 10 mg/kg): 0.6 microgram of Avarol per gram o
- Concentration of Avarol, Spleen ([4]; i.v. 10 mg/kg): 1.9 microgram of Avarol per gram o
- Concentration of Avarol, Testes ([4]; i.v. 10 mg/kg): 0.63 microgram of Avarol per gram o
- Concentration of Avarol, Brain ([4]; i.v. 20 mg/kg): 0.64 microgram of Avarol per gram o
- Concentration of Avarol, Heart ([4]; i.v. 20 mg/kg): 0.9 microgram of Avarol per gram o
- Concentration of Avarol, Kidney ([4]; i.v. 20 mg/kg): 2.4 microgram of Avarol per gram o
- Concentration of Avarol, Liver ([4]; i.v. 20 mg/kg): 7.4 microgram of Avarol per gram o
- Concentration of Avarol, Skin ([4]; i.v. 20 mg/kg): 0.6 microgram of Avarol per gram o
- Concentration of Avarol, Spleen ([4]; i.v. 20 mg/kg): 2.2 microgram of Avarol per gram o
- Concentration of Avarol, Testes ([4]; i.v. 20 mg/kg): 0.67 microgram of Avarol per gram o
- blood-brain barrier penetration ([4]; rats, i.v.): penetrates the blood-brain barrier
- Titer of Interferon-gamma ([5]; 0.2 μg/ml, 0 hours, untreated 2): 4 Units/ml of supernatant
- Titer of Interferon-gamma ([5]; 0.2 μg/ml, 24 hours, untreated 5): 17 Units/ml of supernatant
- Titer of Interferon-gamma ([5]; 0.2 μg/ml, 48 hours, untreated 3): 24 Units/ml of supernatant
- Titer of Interferon-gamma ([5]; 0.2 μg/ml, 72 hours, untreated 7): 26 Units/ml of supernatant
- Titer of Interferon-gamma ([5]; 0.2 μg/ml, 96 hours, untreated 4): 21 Units/ml of supernatant
- Titer of Interferon-gamma ([5]; 0.5 μg/ml, 0 hours, untreated 2): 4 Units/ml of supernatant
- Titer of Interferon-gamma ([5]; 0.5 μg/ml, 24 hours, untreated 5): 23 Units/ml of supernatant
- Titer of Interferon-gamma ([5]; 0.5 μg/ml, 48 hours, untreated 3): 74 Units/ml of supernatant
- Titer of Interferon-gamma ([5]; 0.5 μg/ml, 72 hours, untreated 7): 89 Units/ml of supernatant
- Titer of Interferon-gamma ([5]; 0.5 μg/ml, 96 hours, untreated 4): 118 Units/ml of supernatant
- Titer of Interferon-gamma ([5]; 1.0 μg/ml, 0 hours, untreated 2): 3 Units/ml of supernatant
- Titer of Interferon-gamma ([5]; 1.0 μg/ml, 24 hours, untreated 5): 20 Units/ml of supernatant
- Titer of Interferon-gamma ([5]; 1.0 μg/ml, 48 hours, untreated 3): 52 Units/ml of supernatant
- Titer of Interferon-gamma ([5]; 1.0 μg/ml, 72 hours, untreated 7): 62 Units/ml of supernatant
- Titer of Interferon-gamma ([5]; 1.0 μg/ml, 96 hours, untreated 4): 73 Units/ml of supernatant
- optimal dose for Interferon gamma induction ([5]; in vitro): 0.5 µg/mL
- Titer IgM (IgM titer; from 0 to +4 days, untreated 256): 256
- Titer IgM (IgM titer; from -4 to 0 days, untreated 512): 512
- concentration inhibiting lymphoma cell growth by 50% (lymphoma cell): 0.3 to 0.4 µg/mL
- sensitivity of T-cell derived leukemia cells vs normal T- or B-lymphocytes (lymphoma cell): more sensitively inhibited
- concentration inhibiting [^3 H] dThd-incorporation rate by 50% (normal T-lymphocytes): 0.5 to 1.3 µg/mL
- concentration inhibiting [^3 H] dThd-incorporation rate by 50% (normal B-lymphocytes): 1.6 to 1.9 µg/mL
